The subject of data set [1] is Amaranthus palmeri plants (glyphosate-resistant Palmer amaranth, “R-22”). The experiment in a line: Topical trigger oligonucleotide bioassay with glyphosate on Amaranthus palmeri. It is filed as in vivo. Also on record: key: relative measure of activity, the tested oligonucleotide was either active, less active, or inactive in the bioassay; relative measure of activity, the tested oligonucleotide was either active, less active, or inactive in the bioassay; relative measure of activity, the tested oligonucleotide was either active, less active, or inactive in the bioassay.

Another data set deals with A. palmeri (R-22). The experiment in a line: Greenhouse test: 2,4-D, glyphosate and trigger polynucleotides. To be noted: RU Wmax 1.5 lb/A where included, 14 days after treatment. It is filed as in vivo.
Data set [2] has as its system Corn plants transformed with the CP4 EPSPS gene. The experiment in a line: CP4 EPSPS dsRNA triggers plus RoundUp Ultra on transgenic glyphosate tolerant corn. To be noted: trigger 210, 630, 1890 pmol; RoundUp Ultra 1.5 a.e. lb/acre two-three days later; FIG. 2.
Description: Corn and cotton plants that were transformed with the CP4 EPSPS gene and are resistant to glyphosate were planted in pots in a greenhouse along with negative isolines for each and grown to the first true leaf emergence stage then treated with a trigger solution containing 0.5% Silwet L77, 2% ammonium sulfate, 20 mM Na Phoshpate (pH 6.8) at different rates of trigger amount, 0 picomoles (pmol), 210 pmol, 630 pmol and 1890 pmol. For each replication (8-10 plants), two fully expanded cotyledons were treated by pipette with 50 microliters of trigger solution each, then sprayed two-three days later with 1.5 a.e.lb/acre) of RoundUp™ Ultra (glyphosate, Monsanto, St Louis, Mo.). The cotton and corn plants were scored for stunting and injury 7-16 days after spray treatment.
[3] abbreviates: AS83 triggers to EPSPS promoter of glyphosate resistant A. palmeri, 3′/5′ deletions, mismatch mutations, relative measure of activity.
Where [4] appears, read: 5.2 triggers to A. palmeri EPSPS coding sequence, topical application with Silwet L-77, glyphosate, relative measure of activity.
The mark [5] stands for this setting: AS83 made as ssDNA, dsRNA, dsDNA, making Palmer R-22 plant sensitive to glyphosate.

Turning to “CTCTTTGTTTTTCTTCTGCCAATTT (antisense CTCTTTGTTTTTCTTCTGCCAATTT; DNA, backbone and methylation of C not given here; listed as Amaranthus palmeri) [AS83-DNA-25-wt]”, the result in data set [1] (setting [3]) was active.

With “CTCTTTGTTTTTCTTCTGCCAATTT-3′InvdT [AS83-DNA-3′InvdT]”, in data set [1] (setting [3]), the outcome was inactive.

For “GTCATAGCAACATCTGGCATT [Oligo 5.2-RNA-wt]”, the outcome in data set [1] (setting [4]) was active.

Consider “CTCTTTGTTTTTCTTCTGCCAATT (CTCTTTGTTTTTCTTCTGCCAATT; chemistry not given here) [AS83-DNA-24-3′D, ssDNA 24-mer]”, for which the result in data set [1] (setting [3]) was active.

For “GTCATAGCAACATCTGGCATT-3′ddC [5.2-RNA-3′ddC]”, in data set [1] (setting [4]), the outcome was inactive.

In the case of “TTG TTT TTC TTC TGC CAA (TTGTTTTTCTTCTGCCAA; DNA, backbone and methylation of C not given here) [AS83-DNA-18-5′D, ssDNA 18-mer]”, the outcome in data set [1] (setting [3]) was inactive.

Regarding “GTCATAGCAACATCTGGCATT [5.2-asDNA/sRNA] (GTCATAGCAACATCTGGCATT; chemistry not fully specified) [DNA/RNA hybrid 21-mer]”, the outcome in data set [1] (setting [4]) was inactive.

“CTCTTTGTTTTTCTTCTGCCAA (CTCTTTGTTTTTCTTCTGCCAA; chemistry not given here) [AS83-DNA-22-3′D, ssDNA 22-mer]”: the outcome in data set [1] (setting [3]) was active.

In the case of “CTC TTT GTT TTT CTT CTG C (CTCTTTGTTTTTCTTCTGC; DNA, backbone and methylation of C not given here) [AS83-DNA-19-3′D, ssDNA 19-mer]”, the outcome in data set [1] (setting [3]) was inactive.

As to “CTTTGTTTTTCTTCTGCCAATTT (CTTTGTTTTTCTTCTGCCAATTT; chemistry not given here) [AS83-DNA-23-5′D, ssDNA 23-mer]”, the result in data set [1] (setting [3]) was active.

For “TC ATA GCA ACA TCT GGC ATT [5.2-RNA-5′-20]”, the result in data set [1] (setting [4]) was active.

Take “CUCUUUGUUUUUCUUCUGCCAAUUU (CUCUUUGUUUUUCUUCUGCCAAUUU; RNA, backbone not given here; further chemistry not fully specified; listed as Amaranthus palmeri) [AS83-RNA-wt-]”: the result in data set [1] (setting [5]) was active.

On to “GTCATAGCAACATCTGGCATT-3′IdT [5.2-RNA-3′IdT]”, for which, in data set [1] (setting [4]), the outcome was inactive.

For “GTC Aat GCA ACA TCT GGC ATT [Oligo 5.2-RNA-M5]”, the result in data set [1] (setting [4]) was active.

For “TTGTTTTTCTTCTGCCAATTT (TTGTTTTTCTTCTGCCAATTT; chemistry not given here) [AS83-DNA-21-5′D, ssDNA 21-mer]”, the result in data set [1] (setting [3]) was active.

“GTCATAGCAACATCTGGCATT [5.2-ssDNA-AS] (GTCATAGCAACATCTGGCATT; antisense; DNA, backbone and methylation of C not given here; 5.2-DNA-wt is double-stranded DNA) [Oligo 5.2-ssDNA-AS, ssDNA 21-mer, antisense]”: in data set [1] (setting [4]), the Activity result was “less active”.

For the molecule “C ATA GCA ACA TCT GGC ATT [5.2-RNA-5′-19]”, the Activity entry in data set [1] (setting [4]) is reported as “less active”.

With “TTTGTTTTTCTTCTGCCAATTT (TTTGTTTTTCTTCTGCCAATTT; chemistry not given here) [AS83-DNA-22-5′D, ssDNA 22-mer]”, the outcome in data set [1] (setting [3]) was active.

For the molecule “CTC TTT GTT TTT CTT CTG (CTCTTTGTTTTTCTTCTG; DNA, backbone and methylation of C not given here) [AS83-DNA-18-3′D, ssDNA 18-mer]”, in data set [1] (setting [3]), the outcome was inactive.

For “CTCTTTGTTTTTCTTCTGCC (CTCTTTGTTTTTCTTCTGCC; DNA, backbone and methylation of C not given here) [AS83-DNA-20-3′D, ssDNA 20-mer]”, the result in data set [1] (setting [3]) was active.

As for “CTCTTTGTTTTTCTTCTGCCAAT (CTCTTTGTTTTTCTTCTGCCAAT; chemistry not given here) [AS83-DNA-23-3′D, ssDNA 23-mer]”, the outcome in data set [1] (setting [3]) was active.

With “TTG TTT TTC TTC TGC CAA T (TTGTTTTTCTTCTGCCAAT; DNA, backbone and methylation of C not given here) [AS83-DNA-19-5′D, ssDNA 19-mer]”, in data set [1] (setting [3]), the Activity entry was “less active”.

With “GTCATAGCAACATCTGGCATT [5.2-DNA-wt] (GTCATAGCAACATCTGGCATT; DNA, backbone and methylation of C not given here; 5.2-DNA-wt is double-stranded DNA) [Oligo 5.2-DNA-wt, dsDNA 21-mer]”, the outcome in data set [1] (setting [4]) was active.

Turning to “TTGTTTTTCTTCTGCCAATT (TTGTTTTTCTTCTGCCAATT; chemistry not given here) [AS83-DNA-20-5′D, ssDNA 20-mer]”, in data set [1] (setting [3]), the outcome was active.

“TCTTTGTTTTTCTTCTGCCAATTT (TCTTTGTTTTTCTTCTGCCAATTT; chemistry not given here) [AS83-DNA-24-5′D, ssDNA 24-mer]”: the outcome in data set [1] (setting [3]) was active.

For “AATGCCAGATGTTGCTATGAC (AATGCCAGATGTTGCTATGAC; antisense; DNA, backbone and methylation of C not given here; 5.2-DNA-wt is double-stranded DNA) [Oligo 5.2-ssDNA-S, ssDNA 21-mer, sense]”, the Activity entry in data set [1] (setting [4]) is on record as “less active”.

Regarding `CNC.O=C(O)COc1ccc(Cl)cc1Cl` [2,4-D, 2,4D amine (dimethylamine salt)], the “% Control (mean)” value with A. palmeri (R-22) (2,4-D 0.0625 lb/A) is 60%; in the data set on A. palmeri (R-22) (2,4-D 0.125 lb/A) it was 80.8%.

Turning to “CTCTTTGTTTTTCTTCTGCCA (CTCTTTGTTTTTCTTCTGCCA; chemistry not given here) [AS83-DNA-21-3′D, ssDNA 21-mer]”, the outcome in data set [1] (setting [3]) was active.

For “TTG TTT TTC TTC TGC CA (TTGTTTTTCTTCTGCCA; DNA, backbone and methylation of C not given here) [AS83-DNA-17-5′D, ssDNA 17-mer]”, in data set [1] (setting [3]), the outcome was inactive.

Regarding ATA GCA ACA TCT GGC ATT [5.2-RNA-5′-18], in data set [1] (setting [4]), the outcome was inactive.

With “CTC TTT GTT TTT CTT CT (CTCTTTGTTTTTCTTCT; DNA, backbone and methylation of C not given here) [AS83-DNA-17-3′D, ssDNA 17-mer]”, the outcome in data set [1] (setting [3]) was inactive.

For the molecule “GTCATAGCAACATCTGGCATT [5.2-sDNA/asRNA] (GTCATAGCAACATCTGGCATT; RNA, backbone and T or U not given here; hybrid: sense DNA strand with antisense RNA strand) [DNA/RNA hybrid 21-mer]”, the outcome in data set [1] (setting [4]) was inactive.

Consider “CTCTTTGTTTTTCTTCTGCCAATTT (CTCTTTGTTTTTCTTCTGCCAATTT; chemistry not fully specified) [AS83-DNA-blunt, dsDNA 25-mer]”, for which the outcome in data set [1] (setting [5]) was active.

With “CTCTTTGTTTTTCTTCTGCCAATTT-3′ddC [AS83-DNA-3′ddC]”, the result in data set [1] (setting [3]) was inactive.

B1: CP4-12: dsRNA trigger, 82-462 of SEQ ID NO:1 (CP4 EPSPS), a 381 polynucleotide (nucleic acid, listed as Agrobacterium tumefaciens)
DNA: ATCTCCCACCGGTCCTTCATGTTCGGCGGTCTCGCGAGCGGTGAAACGCGCATCACCGGCCTTCTGGAAGGCGAGGACGTCATCAATACGGGCAAGGCCATGCAGGCCATGGGCGCCAGGATCCGTAAGGAAGGCGACACCTGGATCATCGATGGCGTCGGCAATGGCGGCCTCCTGGCGCCTGAGGCGCCGCTCGATTTCGGCAATGCCGCCACGGGCTGCCGCCTGACCATGGGCCTCGTCGGGGTCTACGATTTCGACAGCACCTTCATCGGCGACGCCTCGCTCACAAAGCGCCCGATGGGCCGCGTGTTGAACCCGCTGCGCGAAATGGGCGTGCAGGTGAAATCGGAAGACGGTGACCGTCTTCCCGTTACCTTG
modifications: dsRNA form
With B1, in data set [2], the “glyphosate injury of corn plants” value is on record as “dead or damaged terminal leaves”.

B2: CP4-34: dsRNA trigger, 594-1043 of SEQ ID NO:1 (CP4 EPSPS), a 450 polynucleotide (nucleic acid, listed as Agrobacterium tumefaciens)
DNA: CGATCATACGGAAAAGATGCTGCAGGGCTTTGGCGCCAACCTTACCGTCGAGACGGATGCGGACGGCGTGCGCACCATCCGCCTGGAAGGCCGCGGCAAGCTCACCGGCCAAGTCATCGACGTGCCGGGCGACCCGTCCTCGACGGCCTTCCCGCTGGTTGCGGCCCTGCTTGTTCCGGGCTCCGACGTCACCATCCTCAACGTGCTGATGAACCCCACCCGCACCGGCCTCATCCTGACGCTGCAGGAAATGGGCGCCGACATCGAAGTCATCAACCCGCGCCTTGCCGGCGGCGAAGACGTGGCGGACCTGCGCGTTCGCTCCTCCACGCTGAAGGGCGTCACGGTGCCGGAAGACCGCGCGCCTTCGATGATCGACGAATATCCGATTCTCGCTGTCGCCGCCGCCTTCGCGGAAGGGGCGACCGTGATGAACGGTCTGGAAGAACT
modifications: dsRNA form
In the case of B2, the “glyphosate injury of corn plants” value in data set [2] is “dead or damaged terminal leaves”.
